Data as given in patent publication EP0363255A1, “Analogues of 4-desoxydaunosamine, process for their preparation, anthracycline derivatives of these analogues and use of these anthracyclines as medicaments” (LABORATOIRES HOECHST S.A., priority 1988, dated 1990).

Columns and labels:
[1] = test system: cellules tumorales L 1210; experiment: Test de prolifération (réduction MTT), L1210; format: cell-based; conditions: 72 h incubation
Protocol: (§1) Des cellules tumorales L 1210, A 549 et HT 29 en croissance exponentielle, à une densité de 5.10³/ml dans un milieu RPMI, sont incubées dans des plaques de microtitration contenant 96 puits, pendant 72 heures (37°C, 5 % CO₂, 95 % d'humidité relative) avec diffé-rentes concentrations de chacun des glycosides conformes à l'invention.
(§2) Les témoins consistent en cellules tumorales dans un milieu de culture frais.
(§3) Quatre puits sont préparés pour chaque concentration de glycoside et pour le témoin.
(§4) Après 65 heures, 50 µl de MTT (2,5 mg/ml dans du PBS) sont ajoutés.
(§5) Le MTT sera réduit, en présence de cellules vivantes, en un colorant formazan rouge insoluble.
(§6) Après 7 à 24 heures d'incubation supplémentaire, le surnageant est enlevé.
(§7) Le colorant formazan est solubilisé par l'addition de 100 µl de DMSO dans chaque puits, suivie d'une agitation douce. L'extinction est mesurée pour chaque puits, à 492 nm (photomètre Multiscan 340 cc, Fa. Flow).
(§8) Les résultats sont exprimés sous forme de relation de l'extinction après incubation avec les glycosides par rapport à l'extinction obtenue avec les té-moins. Le coefficient de variation est inférieur à 15 %. Les résultats sont représentés dans le tableau I, ci-après : […]

cellules tumorales HT 29 = experiment: Test de prolifération (réduction MTT), HT 29; format: cell-based; conditions: HT 29, MTT test, 72 h incubation
Protocol: as §1, §2, §3, §4, §5, §6, §7, §8

cellules tumorales A 549 = experiment: Test de prolifération (réduction MTT), A 549; format: cell-based; conditions: A 549, MTT test, 72 h incubation
Protocol: as §1, §2, §3, §4, §5, §6, §7, §8

leucémie L1210 = conditions: mouse, leucémie L1210, compared with daunorubicine 2a / doxorubicine 2b; cited from earlier work
sarcome S 180 = conditions: mouse, sarcome S 180, compared with daunorubicine 2a / doxorubicine 2b; cited from earlier work
leucémie P 388 = conditions: mouse, leucémie P 388, compared with daunorubicine 2a / doxorubicine 2b; cited from earlier work
[2] = animal models, compared with 2a and 2b; cited from earlier work

SMILES | IC₅₀ [1] | IC₅₀ (cellules tumorales HT 29) | IC₅₀ (cellules tumorales A 549) | activité in vivo (leucémie L1210) | activité in vivo (sarcome S 180) | activité in vivo (leucémie P 388) | cardiotoxicité [2]
COc1cccc2c1C(=O)c1c(O)c3c(c(O)c1C2=O)C[C@@](O)(C(C)=O)C[C@@H]3O[C@H]1C[C@H](CNC(=O)C(F)(F)F)C[C@H](C)O1 [15a, O-(N-TRIFLUOROACETYL AMINOMETHYL-3′ TETRADESOXY-2′, 3′, 4′,6′-α-L-LYXO-HEXOPYRANOSYL)-7 DAUNOMYCINONE] | 0,25 µg/ml | 0,67 µg/ml | 0,43 µg/ml | – | – | – | –
CC[C@@]1(O)C[C@H](O[C@H]2C[C@H](CNC(=O)C(F)(F)F)C[C@H](C)O2)c2c(O)c3c(c(O)c2[C@H]1O)C(=O)c1cccc(O)c1C3=O [16a, O-(N-TRIFLUOROACETYL AMINOMETHYL-3′ TETRADESOXY-2′,3′, 4′,6′-α-L-LYXO-HEXOPYRANOSYL)-7 β-RHODOMYCINONE] | 0,14 µg/ml | 0,48 µg/ml | 0,14 µg/ml | – | – | – | –
COc1cccc2c1C(=O)c1c(O)c3c(c(O)c1C2=O)C[C@@](O)(C(C)=O)C[C@@H]3O[C@H]1C[C@H](N)C[C@H](C)O1 [compound 3] | – | – | – | aussi actifs | aussi actifs | aussi actifs | moins cardiotoxiques
COc1cccc2c1C(=O)c1c(O)c3c(c(O)c1C2=O)C[C@@](O)(C(=O)CO)C[C@@H]3O[C@H]1C[C@H](N)C[C@H](C)O1 [compound 4] | – | – | – | aussi actifs | aussi actifs | aussi actifs | moins cardiotoxiques
